This is an account of results in patent US9943507B2, “Treatment of pancreatic and related cancers with 5-acyl-6,7-dihydrothieno[3,2-c]pyridines” (Memorial Sloan-Kettering Cancer Center, priority 2012, dated 2018).

For assay [1], the target named is T1, Hhat (Homo sapiens, UniProt Q5VTY9).
T1 construct: expressed in transfected cells; host or cells: 293FT cells (P100 membrane fraction)
Description: Hhat activity assay (SPA, P100 membranes from HA-Hhat transfected 293FT cells). The format is biochemical. To be noted: 12.5 μM compound, 125I-iodo-palmitoylCoA, Shh biotinylated peptide. The protocol: Hhat activity assay: Five μl of 10 mM MES, pH 6.5 buffer was dispensed within each well of a 384-well white/clear-bottom plate (Greiner Bio-One, Kremsmuenster, Austria) using a Thermo Multi-Drop Combi dispenser. […] Percent inhibition for each experimental point was determined by the formula: [(high control−compound)/(high control−low control)]*100.

The target of assay [2] is T1, Hhat. Description: In vitro Hhat activity assay with purified enzyme and ShhN recombinant protein (IC50). The format is biochemical. The note with it: saturating substrate; purified enzyme, 0.7 μM ShhN recombinant protein, 18 μM 125I-iodo-palmitoylCoA. On the procedure:
Expression and purification of recombinant Shh were carried out as described in Buglino, J. A. and Resh, M. D. “Hhat is a palmitoylacyl transferase with specificity for N-palmitoylation of sonic hedgehog”. J. Biol. Chem. 283, 22076-22088 (2008) and Buglino, J. A. and Resh, M. D. “Identification of conserved regions and residues within Hedgehog acyltransferase critical for palmitoylation of Sonic Hedgehog”. PLoS One 5, e11195 (2010). N-terminally 6×His tagged human Shh 24-197 with an enterokinase cleavage site immediately upstream of residue 24 was amplified using full length Shh as a template. The purified PCR product was ligated in NcoI and BamHI cut PET19b (Novagen). C24S and C24A constructs were generated by site directed mutagenesis using the Quick Change mutagenesis kit. All mutations were confirmed by sequencing. […] Protein concentration was measured using the DC protein assay (BioRad). […]
HhatHAFlagHis was purified as follows. […] Protein concentrations were determined using the DC Protein Assay. The concentration of the final Flag eluate was determined from the absorbance at 280 nm using an extinction coefficient of 193045 cm^−1M^−1. […]

Assay [3] has as its system AsPC1 (human pancreatic adenocarcinoma) cells. Description: Human pancreatic adenocarcinoma cell assay. It is filed as cell-based. The note with it: day six, FIG. 3. The protocol: Human pancreatic adenocarcinoma cell assay: 5000 AsPC1 (human pancreatic adenocarcinoma) cells were plated in each well of a 384-well black/clear-bottom tissue culture plate (Greiner Bio-One, Kremsmuenster, Austria), using Thermo Multi-Drop Combi dispenser. The plates were incubated at 37° C. for 24 h before compounds were dispensed using a Janus “Varispan” automated syringe pipette at 50 μM final concentration. High control (DMSO only) and low control (cell media only) rows were included in each plate. After 48 h incubation, Alamar Blue (Invitrogen) was added to each well in 1:100 ratio. 4 h later, cell viability was assessed by measuring fluorescence on a Perkin-Elmer EnVision plate reader.
Compound 13 was tested in the human pancreatic adenocarcinoma cell assay. The results are shown graphically in FIG. 3. At 10 μM it reduced the proliferation of human pancreatic cancer cells 50% at day six. At 20 μM it reduced the proliferation of human pancreatic cancer cells by 70% at day six.

T1 sequence (Q5VTY9 whole entry): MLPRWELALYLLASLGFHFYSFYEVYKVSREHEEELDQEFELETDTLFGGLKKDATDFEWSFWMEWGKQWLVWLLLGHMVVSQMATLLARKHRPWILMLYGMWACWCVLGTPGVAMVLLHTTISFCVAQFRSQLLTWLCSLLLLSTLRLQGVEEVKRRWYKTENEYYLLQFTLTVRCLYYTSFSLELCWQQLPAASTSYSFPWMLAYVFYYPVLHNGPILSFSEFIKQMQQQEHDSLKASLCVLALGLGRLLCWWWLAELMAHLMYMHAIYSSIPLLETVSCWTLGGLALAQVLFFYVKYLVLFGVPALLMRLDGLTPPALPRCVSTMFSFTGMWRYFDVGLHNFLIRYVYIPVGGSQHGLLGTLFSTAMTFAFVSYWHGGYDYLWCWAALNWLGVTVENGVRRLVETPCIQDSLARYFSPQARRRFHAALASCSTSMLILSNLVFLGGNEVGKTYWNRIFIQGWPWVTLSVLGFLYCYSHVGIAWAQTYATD

`C=CCNCC(=O)N1CCc2sccc2C1c1ccccc1` (centres unmarked) [Example 5] gave an inhibition at 12.5 µM on Hhat [1] of 95.6%.
In the case of `CCC(C)CNCC(=O)N1CCc2sccc2C1c1cccc(C)n1` (centres unmarked) [Example 14], the IC50 on Hhat [2] came out at 0.68 µM.
`CCC(C)CNCC(=O)N1CCc2sccc2C1c1cccc(C)c1` (centres unmarked) [Example 13]: the IC50 on Hhat [2] is 2.05 µM. Also, the “reduction of proliferation of human pancreatic cancer cells” value in assay [3] (10 μM) is listed as 50%; in assay [3] (20 μM) it was 70%.
